In patent US8906953B2, “Pyrrolidine substitute flavones for the treatment of inflammatory disorders” (Piramal Enterprises Limited, priority 2010, dated 2014):

Test system: arthritic (CIA) DBA/1J mice
Assay: Collagen induced arthritis in mouse
Type: in vivo
Details: Enbrel 3 mg/kg s.c. once daily, 23 days
Description: The assay was designed as in reference, J. Exp. Med., 1985, 162, 637-646, the disclosure of which is incorporated herein by reference for the teaching of the assay.
Male DBA/1J mice (originally procured from Jackson Laboratories, USA), aged 8-10 weeks were immunized with an emulsion equivalent to 200 μg of type II collagen in Freund's Complete Adjuvant, injected intradermally at the base of the tail. A booster shot with the same emulsion was given 21 days later. A group of naïve mice was maintained alongside.
From day 23 to day 56, mice were examined daily once for the signs of rheumatoid arthritis, using the Articular Index and paw thickness as parameters. Articular Index scoring was performed employing the following criteria:
Mice with a minimum hind paw score of 2 were inducted into the study.
Mice were randomized into the various study groups and orally administered the vehicle (0.5% CMC, 1 ml/kg), test compound (compound of example 3, 50 mg/kg twice daily) and standard compound (Enbrel, 3 mg/kg, s.c., once daily). […] The dosing of the compounds was done for 23 days.
The following parameters were observed and recorded daily, • 1. Body weight • 2. Articular index • 3. Paw thickness in mm using a tension free caliper • 4. Any significant observation regarding the condition of the animal. […]
The results are graphically depicted in FIG. 3 (Articular index versus days of treatment) and FIG. 4 (Paw thickness versus days of treatment). Data obtained during the course of this study (articular index and paw thickness) was statistically evaluated by applying Mann-Whitney U test.
Mice were humanely euthanized and the hind paws were harvested from each animal, fixed in 10% neutral buffered formalin, decalcified in 5% formic acid and embedded in paraffin. Section […] were stained with either hematoxylin and eosin or safranin 0 and evaluated microscopically. Histopathological changes were scored as follows: mild (score=1), moderate (score=2) or severe (score=3) for the parameters of cellular infiltration, bone erosions and cartilage damage, graded separately. […]

Enbrel was tested, and the “Severity of disease by articular index and paw thickness” value was “significant reduction in the severity of the disease”.
